Assays:
[1] = target: T1, Formyl peptide receptor 2 (Mus musculus, UniProt O88536); test: Agonist activity at mouse FPR2
T1 sequence (O88536 whole entry): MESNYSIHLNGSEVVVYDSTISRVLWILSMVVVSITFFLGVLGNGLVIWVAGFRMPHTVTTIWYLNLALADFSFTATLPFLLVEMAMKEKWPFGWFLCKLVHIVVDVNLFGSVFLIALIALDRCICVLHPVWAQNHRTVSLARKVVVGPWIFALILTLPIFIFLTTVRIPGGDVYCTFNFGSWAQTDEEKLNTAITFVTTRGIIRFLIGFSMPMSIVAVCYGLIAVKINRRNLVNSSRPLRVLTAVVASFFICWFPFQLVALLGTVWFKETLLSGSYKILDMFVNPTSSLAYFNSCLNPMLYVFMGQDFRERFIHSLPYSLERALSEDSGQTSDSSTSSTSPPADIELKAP

[2] = target: T2, N-formyl peptide receptor 2 (Homo sapiens, UniProt P25090); test: Agonist activity at FPR2 (unknown origin) in HEK293 cells; type: functional, cell-based
T2 sequence (P25090 whole entry): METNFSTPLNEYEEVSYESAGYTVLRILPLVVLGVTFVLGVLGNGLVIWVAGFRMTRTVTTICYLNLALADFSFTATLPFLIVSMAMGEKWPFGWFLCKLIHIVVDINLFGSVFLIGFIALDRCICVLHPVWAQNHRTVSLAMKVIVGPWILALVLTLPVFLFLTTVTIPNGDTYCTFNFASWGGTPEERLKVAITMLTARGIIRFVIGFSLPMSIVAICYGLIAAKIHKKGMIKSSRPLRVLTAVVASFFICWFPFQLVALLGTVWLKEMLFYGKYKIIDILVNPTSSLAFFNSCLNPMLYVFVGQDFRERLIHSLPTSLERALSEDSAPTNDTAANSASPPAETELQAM

Homo sapiens = species: Homo sapiens; test: Selectivity ratio of EC50 for agonist activity at human FPR1 transfected in CHO cells to EC50 for agonist activity at human FPR2 transfected in CHO cells; type: cell-based
[3] = target: T2, N-formyl peptide receptor 2; test: Agonist activity at human FPR2 expressed in HL-60 cells assessed as increase in calcium mobilization by FLIPR analysis; type: functional, cell-based
fMet-Leu-Phe receptor [4] = target: T3, fMet-Leu-Phe receptor (Homo sapiens, UniProt P21462); test: Agonist activity at human FPR1 expressed in HL-60 cells assessed as increase in calcium mobilization by FLIPR analysis; type: functional, cell-based
T3 sequence (P21462 whole entry): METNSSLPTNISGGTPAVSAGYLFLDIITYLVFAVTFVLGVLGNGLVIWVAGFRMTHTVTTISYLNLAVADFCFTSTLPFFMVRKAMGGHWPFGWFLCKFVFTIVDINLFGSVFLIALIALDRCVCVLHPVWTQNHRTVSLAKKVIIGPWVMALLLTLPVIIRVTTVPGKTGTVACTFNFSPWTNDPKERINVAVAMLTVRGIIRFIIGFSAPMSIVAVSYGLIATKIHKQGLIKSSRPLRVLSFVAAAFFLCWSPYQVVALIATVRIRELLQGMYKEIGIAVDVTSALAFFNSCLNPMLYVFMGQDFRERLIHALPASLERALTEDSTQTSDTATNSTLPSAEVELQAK

fMet-Leu-Phe receptor [5] = target: T4, fMet-Leu-Phe receptor (Mus musculus, UniProt P33766); test: Agonist activity at mouse FPR1; type: functional
T4 sequence (P33766 whole entry): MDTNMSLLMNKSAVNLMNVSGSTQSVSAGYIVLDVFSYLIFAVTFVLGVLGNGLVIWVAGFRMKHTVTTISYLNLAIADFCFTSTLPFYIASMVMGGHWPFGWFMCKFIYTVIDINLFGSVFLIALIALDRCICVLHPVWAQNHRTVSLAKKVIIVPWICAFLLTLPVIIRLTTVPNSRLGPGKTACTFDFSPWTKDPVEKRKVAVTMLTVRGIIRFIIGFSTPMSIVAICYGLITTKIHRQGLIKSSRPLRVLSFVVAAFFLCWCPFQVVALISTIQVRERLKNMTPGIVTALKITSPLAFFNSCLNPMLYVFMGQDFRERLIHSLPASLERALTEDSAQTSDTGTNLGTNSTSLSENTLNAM

[6] = target: T2, N-formyl peptide receptor 2; test: Agonist activity at FPR2 (unknown origin) expressed in CHO cells by cAMP assay; type: functional, cell-based
fMet-Leu-Phe receptor [7] = target: T3, fMet-Leu-Phe receptor; test: Agonist activity at FPR1 (unknown origin) expressed in CHO cells by cAMP assay; type: functional, cell-based
fMet-Leu-Phe receptor [8] = target: T3, fMet-Leu-Phe receptor; test: Agonist activity at human FPR1 transfected in CHO cells by cAMP assay; type: functional, cell-based
[9] = target: T2, N-formyl peptide receptor 2; test: Agonist activity at human FPR2; type: functional
[10] = target: T2, N-formyl peptide receptor 2; test: Agonist activity at FPR2 (unknown origin) transfected in CHO cells by cAMP assay; type: functional, cell-based
fMet-Leu-Phe receptor [11] = target: T3, fMet-Leu-Phe receptor; test: Agonist activity at FPR1 (unknown origin) in HEK293 cells; type: functional, cell-based

How did the EC50 [1] turn out when O=C(O)[C@@H]1C2CCC([C@@H]1C(=O)Nc1ccc(Br)cc1)C21CC1 (some centres not stated) was run?
The EC50 was 280 nM.

Cc1ccc(C2(NC(=O)[C@@H]3C4CCC([C@H]3C(=O)NCCCCN3CCCC3)C43CC3)CC2)cc1 (some centres not stated) was tested. Which EC50 [2] did it give?
The EC50 was 4 nM.

For CS(=O)(=O)c1ccccc1-c1ccc(N2CC[C@@H](NC(=O)Nc3ccc(Cl)cc3F)C2=O)c(F)c1F, which Ratio EC50 (Homo sapiens) is on record?
Its Ratio EC50 is 66.

COc1cccc(-c2csc(=O)n2CC(=O)Nc2ccc(Br)cc2)c1 was tested. Which EC50 ([3]; hl-60) did it give?
The EC50 was 230 nM.

And the EC50 (fMet-Leu-Phe receptor [4]; hl-60)?
The EC50 was 280 nM.

With CSCC[C@H](NC=O)C(=O)N[C@@H](CC(C)C)C(=O)N[C@@H](Cc1ccccc1)C(=O)O as the molecule, how does the EC50 (fMet-Leu-Phe receptor [5]) read?
Its EC50 is 23000 nM.

Which Ratio EC50 (Homo sapiens) does the source give for CCP(=O)(CC)c1ccccc1-c1ccc(N2CC[C@@H](NC(=O)Nc3ccc(Cl)cc3F)C2=O)c(F)c1F here?
The Ratio EC50 was 350.

Which EC50 [6] does the source give for COc1cc(F)c([C@H]2CC(=O)NC[C@@H]2NC(=O)Nc2ccc(Cl)cc2)c(F)c1 (racemic) here?
The EC50 was under 1 nM.

And the EC50 (fMet-Leu-Phe receptor [7])?
Its EC50 is 1000 nM.

How did the EC50 [6] turn out when COCCN1CC[C@H](NC(=O)Nc2ccc(Cl)cc2)[C@@H](c2c(F)cc(OC)cc2F)C1 (racemic) was run?
Its EC50 is under 1 nM.

What about the EC50 (fMet-Leu-Phe receptor [7]) of the same molecule?
Its EC50 is 1000 nM.

Which Ratio EC50 (Homo sapiens) does the source give for COc1cccc(-n2c(=O)c(NC(=O)c3ccc(OC(F)F)cc3)c(-c3c(F)cc(OC)cc3F)n2C)c1 here?
The Ratio EC50 was 0.6.

With Cc1ccc(NC(=O)N[C@@H]2CCCN(c3ccc(-c4ccccc4C(N)=O)cc3)C2=O)cc1 as the molecule, how does the EC50 [6] read?
The EC50 was under 5 nM.

COc1ccc(C2(CNC(=O)[C@](C)(Cc3c[nH]c4ccccc34)NC(=O)Nc3ccc([N+](=O)[O-])cc3)CCCCC2)nc1 was tested. Which EC50 (fMet-Leu-Phe receptor [4]) did it give?
Its EC50 is 300 nM.

COc1cc(F)c(-c2c(NC(=O)c3ccc(OC(F)F)cc3)c(=O)n(-c3ccccn3)n2C)c(F)c1 was tested. Which EC50 (fMet-Leu-Phe receptor [8]) did it give?
The EC50 was over 10 nM.

And the Ratio EC50 (Homo sapiens)?
The Ratio EC50 was over 630.

COc1ccc([C@@H]2COC(=O)[C@@H]2NC(=O)Nc2ccc(Cl)cc2)cc1 (racemic) was tested. Which EC50 [6] did it give?
The EC50 was 0.25 nM.

COC(=O)c1cccc(-n2c(=O)c(NC(=O)c3ccc(OC(F)F)cc3)c(-c3c(F)cc(OC)cc3F)n2C)c1 was tested. Which Ratio EC50 (Homo sapiens) did it give?
Its Ratio EC50 is 1.

How did the EC50 [9] turn out when CC/C=C\C[C@@H](O)/C=C/C=C\C[C@@H](O)/C=C/C=C/C=C\[C@@H](O)CCC(=O)O was run?
The EC50 was 1.2 nM.

With C[C@H]1CC(c2ccccc2)=NN(CC(=O)Nc2ccc(Br)cc2)C1=O as the molecule, how does the EC50 [3] read?
The EC50 was 11000 nM.

What about the EC50 (fMet-Leu-Phe receptor [4]) of the same molecule?
The EC50 was 20000 nM.

With CCOC(=O)[C@H]1C2CCC([C@H]1C(=O)Nc1ccc(Br)cc1)C21CC1 (some centres not stated) as the molecule, how does the EC50 [10] read?
Its EC50 is 1400 nM.

With COc1cc(F)c(-n2c(-c3ccccc3)cnc2NC(=O)c2ccc(OC(F)F)cc2)c(F)c1 as the molecule, how does the EC50 [2] read?
The EC50 was 4 nM.

What about the EC50 (fMet-Leu-Phe receptor [11]) of the same molecule?
The EC50 was 200 nM.

Which Ratio EC50 (Homo sapiens) does the source give for CS(=N)(=O)c1ccccc1-c1ccc(N2CC[C@@H](NC(=O)Nc3ccc(Cl)cc3F)C2=O)c(F)c1F (some centres not stated) here?
The Ratio EC50 was 82.

Which results are given for COc1ccc(-n2c(-c3ccccc3)cnc2NC(=O)c2ccc(OC(F)F)cc2)cc1?
EC50 [2]: 3 nM; EC50 (fMet-Leu-Phe receptor [11]): 38 nM

Which Ratio EC50 (Homo sapiens) does the source give for COc1cc(F)c(-c2c(NC(=O)c3ccc(OC(F)F)cc3)c(=O)n(-c3cccc(-n4ccc(C)n4)n3)n2C)c(F)c1 here?
Its Ratio EC50 is 1.

How did the EC50 (fMet-Leu-Phe receptor [11]) turn out when COC(=O)c1ccc(NC(=O)CSc2nc3cc(OC)ccc3[nH]2)cc1 was run?
The EC50 was 4700 nM.

CP(C)(=O)c1ccccc1-c1ccc(N2CC[C@@H](NC(=O)Nc3ccc(Cl)cc3F)C2=O)c(F)c1F was tested. Which Ratio EC50 (Homo sapiens) did it give?
The Ratio EC50 was 490.

With CSc1ccc(NC(=O)Nc2ccc3c(c2)C(=O)N(CCCN)C(C)C3)cc1 (configuration not stated) as the molecule, how does the EC50 [1] read?
The EC50 was 15 nM.

Cc1ccc(NC(=O)N[C@H]2CCCN(c3ccc(-c4ccccc4C(N)=O)cc3)C2=O)cc1 was tested. Which EC50 [6] did it give?
Its EC50 is 40 nM.

COc1ccc(NC(=O)CSc2nc3cc(OC)ccc3[nH]2)cc1 was tested. Which EC50 [2] did it give?
The EC50 was 15 nM.

And the EC50 (fMet-Leu-Phe receptor [11])?
The EC50 was 3700 nM.

Which EC50 (fMet-Leu-Phe receptor [8]) does the source give for COc1cc(C2CCNCC2)nc(-n2c(=O)c(NC(=O)c3ccc(OC(F)F)cc3)c(-c3c(F)cc(OC)cc3F)n2C)c1 here?
Its EC50 is over 10000 nM.

How did the EC50 [3] turn out when CCCc1cn(-c2cccc(OC)c2)c(=O)n(CC(=O)Nc2ccc(Br)cc2)c1=O was run?
The EC50 was 2400 nM.

What about the EC50 (fMet-Leu-Phe receptor [4]) of the same molecule?
Its EC50 is 3300 nM.
